Data: patent US10913750B2, “Tubulin-binding compounds, compositions and uses related thereto” (The Regents of the University of California, priority 2015, dated 2021)

Legend:
tubulin = target: T1, tubulin (Sus scrofa, UniProt P02554); test: In vitro tubulin polymerization assay (HTS-tubulin polymerization kit, Cytoskeleton); format: biochemical; conditions: 3 μM compound, fluorescence, 70 minutes at 37° C.
T1 construct: purchased Cytoskeleton Inc. BK011P
Experimental: 1.5 ul of 10× strength compound, 20 μl of tubulin solution and Triton X-100 at a final concentration of 0.01% were added to each well in a 384 well plate. The reactions were assembled on ice to prevent tubulin pre-polymerization. For kinetic measurements, microtubule polymerization was monitored by reading the fluorescence at 420 nm (due to the incorporation of a fluorescent reporter into microtubules as polymerization occurs) every ten seconds using a Tecan M1000 microplate reader (FIG. 6B). […] Fluorescence increased as polymerization occurred, due to the incorporation of 4′,6-diamidino-2-phenylindole. Fluorescence was monitored every minute for 70 minutes at 37° C.
Tubulin polymerization reactions were carried out according to the manufacturer (Cytoskeleton, BK011P) in the presence of 3 μM colchicine, MI-181, taxol or DMSO. Polymerization was monitored with a Tecan M1000 micro-plate reader at 420 nm for 70 minutes at 37° C. The results are depicted in FIG. 11.

M397 = test: CellTiter-Glo cell viability, M397; format: cell-based
Experimental: (§1) To determine if MI-181 had broad anti-cancer activity, we treated a diverse panel of cancer cell lines including cervical adenocarcinoma (HeLa), breast adenocarcinoma (MCF7), melanoma (M233), osteosarcoma (U205), acute lymphoblastic leukemia (CCRF-CEM), non-small cell lung carcinoma (NCI-H460), and breast adenocarcinoma (MCF7) with MI-181 and determined its cell viability IC50 (FIGS. 13A and 13B). […] Therefore, the efficacy of MI-181 was analyzed in a panel of melanoma cell lines with defined genetic backgrounds including BRAF^V600E and NRAS^Q61L mutations and varied sensitivities to Vemurafenib (BRAF inhibitor) and Trametinib (MEK inhibitor), which are currently used to treat BRAF^V600E melanomas^43,44 (FIG. 10c). […] As a general trend BRAF^V600E cell lines were slightly more sensitive than NRAS^Q61L cell lines and MI-181 was effective in Vemurafenib and Trametinib resistant cell lines (FIG. 10c and Table 3). Finally, we tested the ability of MI-181 to inhibit melanoma colony formation using the M233 and M308 cell lines (both resistant to Vemurafenib). Indeed, MI-181 was a potent inhibitor of colony formation (percentage colony formation for 10 nM MI-181=0.2±0.1 and 0.8±0.7; for 10 nM colchicine=0.1±0.06 and 1.5±0.5; and for 10 nM Vemurafenib=94±7 and 102±5) (FIG. 10d). Thus, MI-181 is a potent inhibitor of melanoma cell lines. […]

M243 = test: CellTiter-Glo cell viability, M243; format: cell-based
Experimental: as §1

M238 = test: CellTiter-Glo cell viability, M238; format: cell-based
Experimental: as §1

M376 = test: CellTiter-Glo cell viability, M376; format: cell-based
Experimental: as §1

M296 = test: CellTiter-Glo cell viability, M296; format: cell-based
Experimental: as §1

M230 = test: CellTiter-Glo cell viability, M230; format: cell-based
Experimental: as §1

M375 = test: CellTiter-Glo cell viability, M375; format: cell-based
Experimental: as §1

[1] = tested on: panel of melanoma cell lines; test: Cell viability in a panel of melanoma cell lines; format: cell-based; conditions: melanoma cell lines incl. BRAF V600E and NRAS Q61L mutations; read-out: IC50 across melanoma panel
Experimental: as §1

cells = test: Immunoblot analysis of synchronized cells and drug washout (mitotic arrest reversibility); format: cell-based
Experimental: Phospho-histone-H3-488 (Ser10) (p-H3-488, Cell Signaling), α-tubulin (Serotec), AurKB (BD Transduction), Anti-Centromere-Antibodies (ACA, Cortex Biochem), cyclin A and B (Santa Cruz Biotechnology), and SECURIN (Gene Tex). BubR1 and Bub1 were from Hongtao Yu. FITC-, Cy3- and Cy5-conjugated secondary antibodies were from Jackson Immuno Research.
Cells were synchronized in G1/S, released into the cell cycle in the presence of DMSO or MI-181, and cell extracts were prepared at several time points post-release. […] Additionally, the MI-182-induced mitotic arrest was reversible, as cells exited mitosis within 2 hours of drug washout (FIG. 9).

T1 sequence (P02554 whole entry): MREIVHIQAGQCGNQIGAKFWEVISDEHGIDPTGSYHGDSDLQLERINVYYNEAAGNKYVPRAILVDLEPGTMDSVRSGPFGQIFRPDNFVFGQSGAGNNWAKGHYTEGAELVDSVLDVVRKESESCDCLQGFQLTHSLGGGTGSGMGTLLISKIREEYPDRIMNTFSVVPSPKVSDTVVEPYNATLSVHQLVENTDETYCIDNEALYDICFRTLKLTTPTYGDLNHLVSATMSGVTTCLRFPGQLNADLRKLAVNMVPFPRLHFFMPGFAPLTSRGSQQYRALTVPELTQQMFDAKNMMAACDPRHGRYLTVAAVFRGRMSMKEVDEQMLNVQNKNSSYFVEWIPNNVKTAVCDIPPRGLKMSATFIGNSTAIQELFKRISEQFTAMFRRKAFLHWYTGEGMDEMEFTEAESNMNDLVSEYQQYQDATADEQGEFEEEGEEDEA
T1 sequence (P02550 whole entry partner): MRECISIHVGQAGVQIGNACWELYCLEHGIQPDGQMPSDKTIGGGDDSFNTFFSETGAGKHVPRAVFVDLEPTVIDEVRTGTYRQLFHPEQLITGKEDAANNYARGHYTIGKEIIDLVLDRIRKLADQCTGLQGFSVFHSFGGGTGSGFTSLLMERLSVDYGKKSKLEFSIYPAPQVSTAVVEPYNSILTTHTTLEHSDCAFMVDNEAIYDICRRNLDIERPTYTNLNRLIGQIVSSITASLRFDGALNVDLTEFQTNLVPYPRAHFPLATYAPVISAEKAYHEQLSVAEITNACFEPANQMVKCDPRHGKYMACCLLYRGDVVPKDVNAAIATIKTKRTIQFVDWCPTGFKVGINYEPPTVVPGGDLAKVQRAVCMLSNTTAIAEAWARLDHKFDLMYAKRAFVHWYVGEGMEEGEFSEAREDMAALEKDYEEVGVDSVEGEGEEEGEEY

inhibition of microtubule (tubulin) polymerization in vitro (tubulin): inhibits tubulin polymerization
IC50 [1]: 0.018 to 0.09 µM
Compound: Cc1cc2nc(/C=C/c3cccnc3)sc2cc1C [MI-181]
IC50 (M397): 0.0181 µM
IC50 (M243): 0.026 µM
IC50 (M238): 0.0305 µM
IC50 (M376): 0.0397 µM
IC50 (M296): 0.0367 µM
IC50 (M230): 0.042 µM
IC50 (M375): 0.0582 µM
reversibility of induced mitotic arrest (cells; FIG. 9): reversible
cell cycle state by immunoblot (cells; cells synchronized in G1/S, released in presence of drug): arrested in mitosis (p-H3 positive), activated the SAC (BubR1 remained phosphorylated) and stabilized cyclin B while degrading cyclin A
time to exit mitosis after drug washout (cells; drug washout): ≤ 2 h
